Assay results from patent publication US20210017193A1, “CONDENSED BICYCLIC HETEROCYCLIC DERIVATIVES AS PEST CONTROL AGENTS” (Bayer Aktiengesellschaft, priority 2018, published 2021).

Legend:
Meloidogyne incognita = Meloidogyne incognita test; format: in vivo; conditions: 20 ppm, lettuce in sand, after 14 days
Description: Meloidogyne incognita test Solvent: 125.0 parts by weight of acetone To produce a suitable active compound formulation, 1 part by weight of active compound is mixed with the stated amount of solvent and the concentrate is diluted to the desired concentration with water. Vessels are filled with sand, active compound solution, an egg/larvae suspension of the southern root-knot nematode (Meloidogyne incognita) and lettuce seeds. The lettuce seeds germinate and the plants develop. The galls develop on the roots. After 14 days, the nematicidal efficacy in % is determined by the formation of galls. 100% means that no galls were found; 0% means that the number of galls on the treated plants corresponds to the untreated control.

[1] = log P determination by HPLC on reversed-phase column (C18), acidic range; format: physicochemical; conditions: LC-UV, formic acid in water/acetonitrile
Description: log P Values The log P values were determined according to EEC Directive 79/831 Annex V.A8 by HPLC (high-performance liquid chromatography) on a reversed-phase column (C18) using the following methods: ^[a] […] Calibration was carried out using a homologous series of straight-chain alkan-2-ones (having 3 to 16 carbon atoms) with known log P values. The values between successive alkanones are determined by linear regression.

Myzus persicae [2] = assay: Myzus persicae oral test; format: in vivo; conditions: 120 h, oral uptake from microtitre plates, after 5 days, read-out: efficacy (aphids killed)
Description: Myzus persicae—Oral Test Solvent: 100 parts by weight of acetone To produce a suitable preparation of active compound, 1 part by weight of active compound is dissolved using the specified parts by weight of solvent and made up with water until the desired concentration is attained. 50 μl of the active compound preparation are transferred into microtitre plates and made up to a final volume of 200 μl with 150 μl of IPL41 insect medium (33%+15% sugar). Subsequently, the plates are sealed with parafilm, which a mixed population of green peach aphids (Myzus persicae) within a second microtitre plate is able to puncture and imbibe the solution through. After 5 days, the efficacy in % is determined. 100% means that all the aphids have been killed; 0% means that no aphids have been killed.

Myzus persicae [3] = assay: Myzus persicae spray test; format: in vivo; conditions: foliar, 120 h, Chinese cabbage leaf discs, after 5 days, read-out: efficacy (aphids killed)
Description: Myzus persicae—Spray Test Solvent: 78 parts by weight of acetone • • 1.5 parts by weight of dimethylformamide Emulsifier: alkylaryl polyglycol ether To produce a suitable active compound preparation, 1 part by weight of active compound is dissolved using the stated parts by weight of solvent and made up with water containing an emulsifier concentration of 1000 ppm until the desired concentration is attained. To produce further test concentrations, the formulation is diluted with emulsifier-containing water. Discs of Chinese cabbage leaves (Brassica pekinensis) infested by all stages of the green peach aphid (Myzus persicae) are sprayed with an active compound formulation of the desired concentration. After 5 days, the efficacy in % is determined. 100% means that all the aphids have been killed; 0% means that no aphids have been killed.

Spodoptera frugiperda = Spodoptera frugiperda spray test; format: in vivo; conditions: 100 g/ha, maize leaf discs, after 7 days
Description: Spodoptera frugiperda—Spray Test
(§1) Solvent: 78.0 parts by weight of acetone • • 1.5 parts by weight of dimethylformamide
(§2) Emulsifier: alkylaryl polyglycol ether
(§3) To produce a suitable active compound preparation, 1 part by weight of active compound is dissolved using the stated parts by weight of solvent and made up with water containing an emulsifier concentration of 1000 ppm until the desired concentration is attained. To produce further test concentrations, the formulation is diluted with emulsifier-containing water.
Leaf discs of maize (Zea mays) are sprayed with an active compound formulation of the desired concentration and, after drying, populated with caterpillars of the fall armyworm (Spodopterafrugiperda).
After 7 days, the efficacy in % is determined. 100% means that all the caterpillars have been killed; 0% means that no caterpillar has been killed.

Phaedon cochleariae = Phaedon cochleariae spray test; format: in vivo; conditions: 100 g/ha, Chinese cabbage leaf discs, after 7 days
Description: Phaedon cochleariae—Spray Test
as §1, §2, §3
Discs of Chinese cabbage leaves (Brassica pekinensis) are sprayed with an active compound formulation of the desired concentration and, after drying, populated with larvae of the mustard beetle (Phaedon cochleariae).
After 7 days, the efficacy in % is determined. 100% means that all the beetle larvae have been killed; 0% means that no beetle larvae have been killed.

Ctenocephalides felis = Ctenocephalides felis oral test; format: in vivo; conditions: 100 ppm in citrated cattle blood, adult cat fleas, after 2 days
Description: Ctenocephalides felis—Oral Test
Solvent: dimethyl sulfoxide
To produce a suitable active compound formulation, 10 mg of active compound are mixed with 0.5 ml of dimethyl sulfoxide. Dilution with citrated cattle blood gives the desired concentration.
About 20 unfed adult cat fleas (Ctenocephalidesfelis) are placed into a chamber which is closed at the top and bottom with gauze. A metal cylinder whose bottom end is closed with parafilm is placed onto the chamber. The cylinder contains the blood/active compound formulation, which can be imbibed by the fleas through the parafilm membrane.
After 2 days, the kill in % is determined. 100% means that all of the fleas have been killed; 0% means that none of the fleas have been killed.

Diabrotica balteata = Diabrotica balteata spray test; format: in vivo; conditions: 160 μg/cavity, sprayed germinated wheat grains, beetle larvae, after 7 days
Description: Diabrotica balteata—Spray Test Solvent: 78 parts by weight of acetone • • 1.5 parts by weight of dimethylformamide Emulsifier: alkylaryl polyglycol ether To produce a suitable active compound preparation, 1 part by weight of active compound is dissolved using the stated parts by weight of solvent and made up with water containing an emulsifier concentration of 1000 ppm until the desired concentration is attained. To produce further test concentrations, the formulation is diluted with emulsifier-containing water. Pre-swollen wheat grains (Triticum aestivum) are incubated in a multiwell plate filled with agar and a little water for one day (5 seed grains per cavity). The germinated wheat grains are sprayed with an active compound preparation of the desired concentration. Subsequently, each cavity is infected with 10-20 beetle larvae of Diabrotica balteata. After 7 days, the efficacy in % is determined. 100% means that all wheat plants have grown as in the untreated, uninfected control; 0% means that no wheat plant has grown.

Tetranychus urticae = Tetranychus urticae spray test, OP-resistant; format: in vivo; conditions: 100 g/ha, bean leaf discs, after 6 days
Description: Tetranychus urticae—Spray Test, OP-Resistant
as §1, §2, §3
Discs of bean leaves (Phaseolus vulgaris) infested with all stages of the greenhouse red spider mite (Tetranychus urticae) are sprayed with an active compound formulation of the desired concentration.
After 6 days, the efficacy in % is determined. 100% means that all the spider mites have been killed; 0% means that no spider mites have been killed.

Boophilus microplus = Boophilus microplus injection test; format: in vivo; conditions: 20 μg/animal, injection into engorged adult female cattle ticks, assessed after 7 days
Description: Boophilus microplus—Injection Test Solvent: dimethyl sulfoxide To produce a suitable active compound formulation, 10 mg of active compound are mixed with 0.5 ml of solvent and the concentrate is diluted to the desired concentration with solvent. 1 μl of the active compound solution is injected into the abdomen of 5 engorged adult female cattle ticks (Boophilus microplus). The animals are transferred into dishes and kept in a climate-controlled room. Efficacy is assessed after 7 days by laying of fertile eggs. Eggs which are not visibly fertile are stored in a climate-controlled cabinet until the larvae hatch after about 42 days. An efficacy of 100% means that none of the ticks has laid any fertile eggs; 0% means that all the eggs are fertile.

| Compound | chromatographic logP [1] | pest or weed control at 4 ppm (Myzus persicae [2]) [%] | pest or weed control at 100 g/ha (Myzus persicae [3]) [%] | efficacy (caterpillars killed) (Spodoptera frugiperda) [%] | efficacy (Diabrotica balteata) [%] | other results |
| --- | --- | --- | --- | --- | --- | --- |
| CCS(=O)(=O)c1c(-c2nc3cc(C(F)(F)F)n(C)c(=O)c3n2C)nc2cc(C3(C#N)CC3)ccn12 [Example I-02, 1-{2-[3,5-Dimethyl-4-oxo-6-(trifluoromethyl)-4,5-dihydro-3H-imidazo [4,5-c]pyridin-2-yl]-3-(ethylsulfonyl)imidazo[1,2-a]pyridin-7-yl}cyclopropanecarbonitrile] | 2.59 | 100 | 100 | 100 | – | nematicidal efficacy (formation of galls) (Meloidogyne incognita): 100%; efficacy (beetle larvae killed) (Phaedon cochleariae): 100%; efficacy (kill in %) (Ctenocephalides felis): 100% |
| CCS(=O)(=O)c1c(-c2nc3cc(C(F)(F)F)n(C)c(=O)c3n2C)nc2n1CCC(C)(C)C2 [Example I-10, 2-(3-Ethylsulfonyl-7,7-dimethyl-6,8-dihydro-5H-imidazo[1,2-a]pyridin-2-yl)-3,5-dimethyl-6-(trifluoromethyl)imidazo[4,5-c]pyridin-4-one] | 2.66 | 100 | 90 | – | 100 | – |
| CCS(=O)(=O)c1c(-c2nc3cc(C(F)(F)F)n(C)c(=O)c3n2C)nc2n1CC(C)CC2 (centres unmarked) [Example I-04] | – | 100 | 100 | – | – | – |
| Cn1c(C(F)(F)F)cc2nc(-c3nc4n(c3Br)CCC(C)(C)C4)n(C)c2c1=O [2-(3-Bromo-7,7-dimethyl-6,8-dihydro-5H-imidazo[1,2-a]pyridin-2-yl)-3,5-dimethyl-6-(trifluoromethyl)imidazo[4,5-c]pyridin-4-one] | 3.14 | – | – | – | – | – |
| CC1(C)CCn2c(nc(C(=O)O)c2Br)C1 [3-Bromo-7,7-dimethyl-6,8-dihydro-5H-imidazo[1,2-a]pyridine-2-carboxylicacid] | 0.67 | – | – | – | – | – |
| CCS(=O)(=O)c1c(-c2nc3cc(C(F)(F)F)n(C)c(=O)c3n2C)nc2n1CCC(C)C2 (centres unmarked) [Example I-05] | – | 100 | 100 | – | – | nematicidal efficacy (formation of galls) (Meloidogyne incognita): 90% |
| CCS(=O)(=O)c1c(-c2nc3cc(C(F)(F)F)n(C)c(=O)c3n2C)nc2cc(S(=O)(=O)C3CC3)ccn12 [Example I-12, 2-[7-(Cyclopropylsulfonyl)-3-(ethylsulfonyl)imidazo[1,2-a]pyridin-2-yl]-3,5-dimethyl-6-(trifluoromethyl)-3,5-dihydro-4H-imidazo[4,5-c]pyridin-4-one] | 2.59 | 100 | – | 100 | 100 | – |
| CCS(=O)(=O)c1c(-c2nc3cc(C(F)(F)F)n(C)c(=O)c3n2C)nc2cc(C(=O)C3CC3)ccn12 [Example I-08] | – | 100 | 90 | 100 | 100 | – |
| CCS(=O)(=O)c1c(-c2nc3cc(C(F)(F)F)n(C)c(=O)c3n2C)nc2n1CCC(C)C2C (centres unmarked) [Example I-09] | – | 100 | 90 | – | 100 | efficacy (spider mites killed) (Tetranychus urticae): 90% |
| CCS(=O)(=O)c1c(-c2nc3cc(C(F)(F)F)n(C)c(=O)c3n2C)nc2n1CCCC2C (centres unmarked) [Example I-11] | – | 100 | 90 | – | 100 | – |
| CCS(=O)(=O)c1c(-c2nc3cc(C(F)(F)F)n(C)c(=O)c3n2C)nc2cc(C(F)(F)F)ccn12 [Example I-01, 2-[3-(Ethylsulfonyl)-7-(trifluoromethyl)imidazo[1,2-a]pyridin-2-yl]-3,5-dimethyl-6-(trifluoromethyl)-3,5-dihydro-4H-imidazo[4,5-c]pyridin-4-one] | 3.2 | 100 | – | 100 | – | efficacy (laying of fertile eggs) (Boophilus microplus): 100%; efficacy (kill in %) (Ctenocephalides felis): 95% |
| CCS(=O)(=O)c1c(-c2nc3cc(C(F)(F)F)n(C)c(=O)c3n2C)nc2n1CCC(C(F)(F)F)C2 (centres unmarked) [Example I-06] | – | 100 | – | 100 | 100 | – |
| CCS(=O)(=O)c1c(-c2nc3cc(C(F)(F)F)n(C)c(=O)c3n2C)nc2cc(C(F)(F)C3CC3)ccn12 [Example I-07] | – | 100 | – | 100 | 100 | – |
| CCS(=O)(=O)c1c(-c2nc3cc(C(F)(F)F)n(C)c(=O)c3n2C)nc2n1CCCC2 [Example I-03, 2-[3-(Ethylsulfonyl)-5,6,7,8-tetrahydroimidazo[1,2-a]pyridin-2-yl]-3,5-dimethyl-6-(trifluoromethyl)-3,5-dihydro-4H-imidazo[4,5-c]pyridin-4-one] | 2.03 | 100 | 90 | – | – | – |
